What was measured:
C4-2B cells = assay: DNA synthesis (BrdU incorporation) in C4-2B cells; assay type: cell-based, human
Procedure: Cells on coverslips were pulsed in vivo with BrdU (Sigma-Aldrich; at 100 μM, final concentration) and left unchallenged or challenged with 10 nM R1881 for 18 h, in the absence or presence of the indicated compounds. Cells were fixed, permeabilized, washed and the BrdU incorporation was analysed as reported. Nuclei were stained with Hoechst and cells on coverslips were scored by IF microscopy, using a DMLB Leica (Leica) fluorescent microscope, equipped with HCX PL Apo 63 × oil objective. Different fields from each coverslip were analyzed and BrdU incorporation was calculated by the formula: percentage of BrdU-positive cells = (No. of BrdU-positive cells/No. of total cells) × 100. Data in the graphs derive from at least 1000 scored cells for each coverslip. Representative images were captured using DC480 camera (Leica) and acquired using Leica Suite software. They are representative of three different experiments.

p27 = assay: Western blot of p27 in LNCaP cells; assay type: cell-based, human; conditions: for P27, fold increase over the basal level: 15 h; for androgen-induced p27 down-regulation: R1881, compound 1 μM
Excerpt: (§1) All performed as reported. The mouse monoclonal anti-AR (441; Santa Cruz) antibody was used in Co-Ip or WB approaches. TRPM8 was detected using the rabbit polyclonal anti-TRPM8 (NBP1-97311; Novus Biological). […] The rabbit polyclonal anti-ERK (C-14; Santa Cruz), antibody was used to detect total ERK. FAK and P-Tyr397 FAK were detected using the mouse monoclonal anti-FAK (Clone 77/610077 BD Transduction Laboratories) or anti P-Tyr397 FAK (Clone 14/611722; BD Transduction Laboratories) antibodies, respectively. P-Tyr118 paxillin and total paxillin were detected using the rabbit polyclonal anti-P-Y118 (#2541, Cell Signaling) or the mouse monoclonal anti-paxillin (clone 349; BD Biosciences) antibodies, respectively. […] P-Tyr 416 Src and Src were detected using the rabbit monoclonal anti P-Tyr 416 Src (#6943; Cell Signaling) or the mouse monoclonal anti Src (Calbiochem) antibodies, respectively. ERα and ERβ were detected using the rabbit polyclonal anti-ERα (543; Santa Cruz) or anti-ERβ (Upstate Biotechnology, U.S.A.) antibodies. Cyclin D1, p27 and Cdk4 were stained using the mouse monoclonal anti-cyclin D1 (clone AM29; from Zymed Laboratories Inc.), the rabbit polyclonal anti-p27 (C-19; Santa Cruz) or anti Cdk-4 (c-22; Santa Cruz) antibodies, respectively. The mouse monoclonal anti-tubulin (Sigma-Aldrich) antibody was used to detect tubulin. The ECL system (GE Healthcare) was employed to reveal immune-reactive proteins. Densitometric analysis of WB was performed by using Image J Software (https://imagej.nih.gov/ij).

AR = assay: Western blot of AR in LNCaP lysate proteins; assay type: cell-based, human; conditions: for AR in lysates, Average (n=3): Fig 6d upper panel
Excerpt: as §1

TRPM8 = assay: Western blot of TRPM8 in LNCaP lysate proteins; assay type: cell-based, human; conditions: for TRPM8 in lysates, Average (n=3): Fig 6d upper panel
Excerpt: as §1

FAK, paxillin = assay: Western blot of FAK activation and paxillin phosphorylation in LNCaP cells; assay type: cell-based, human; conditions: for androgen-elicited FAK activation and paxillin phosphorylation: 10 nM R1881, 10 min; for androgen-elicited FAK activation and paxillin phosphorylation / FAK or paxillin phosphorylation when used alone: compound 1 μM; for FAK or paxillin phosphorylation when used alone: no R1881
Excerpt: as §1

AR/TRPM8 complex = target: T1, AR/TRPM8 complex (Homo sapiens, UniProt Q7Z2W7); assay: Co-IP of AR with TRPM8 in LNCaP cells; assay type: cell-based; conditions: for androgen-induced Co-IP of AR with TRPM8: 10 nM R1881, 10 min, compound 1 μM; for AR in IP anti-AR, Average (n=3) / TRPM8 in IP anti-AR, Average (n=3): Fig 6d lower panel; for AR, Average (n=3) / TRPM8, Average (n=3): Fig 6e, R1881 alone
T1 construct: We here dissected an endogenous non-genomic mechanism of the TRPM8 channel regulation by androgens in PC cells; endogenous in cells; host or cells: LNCaP cells
T1 sequence (Q7Z2W7 whole entry, one chain of several): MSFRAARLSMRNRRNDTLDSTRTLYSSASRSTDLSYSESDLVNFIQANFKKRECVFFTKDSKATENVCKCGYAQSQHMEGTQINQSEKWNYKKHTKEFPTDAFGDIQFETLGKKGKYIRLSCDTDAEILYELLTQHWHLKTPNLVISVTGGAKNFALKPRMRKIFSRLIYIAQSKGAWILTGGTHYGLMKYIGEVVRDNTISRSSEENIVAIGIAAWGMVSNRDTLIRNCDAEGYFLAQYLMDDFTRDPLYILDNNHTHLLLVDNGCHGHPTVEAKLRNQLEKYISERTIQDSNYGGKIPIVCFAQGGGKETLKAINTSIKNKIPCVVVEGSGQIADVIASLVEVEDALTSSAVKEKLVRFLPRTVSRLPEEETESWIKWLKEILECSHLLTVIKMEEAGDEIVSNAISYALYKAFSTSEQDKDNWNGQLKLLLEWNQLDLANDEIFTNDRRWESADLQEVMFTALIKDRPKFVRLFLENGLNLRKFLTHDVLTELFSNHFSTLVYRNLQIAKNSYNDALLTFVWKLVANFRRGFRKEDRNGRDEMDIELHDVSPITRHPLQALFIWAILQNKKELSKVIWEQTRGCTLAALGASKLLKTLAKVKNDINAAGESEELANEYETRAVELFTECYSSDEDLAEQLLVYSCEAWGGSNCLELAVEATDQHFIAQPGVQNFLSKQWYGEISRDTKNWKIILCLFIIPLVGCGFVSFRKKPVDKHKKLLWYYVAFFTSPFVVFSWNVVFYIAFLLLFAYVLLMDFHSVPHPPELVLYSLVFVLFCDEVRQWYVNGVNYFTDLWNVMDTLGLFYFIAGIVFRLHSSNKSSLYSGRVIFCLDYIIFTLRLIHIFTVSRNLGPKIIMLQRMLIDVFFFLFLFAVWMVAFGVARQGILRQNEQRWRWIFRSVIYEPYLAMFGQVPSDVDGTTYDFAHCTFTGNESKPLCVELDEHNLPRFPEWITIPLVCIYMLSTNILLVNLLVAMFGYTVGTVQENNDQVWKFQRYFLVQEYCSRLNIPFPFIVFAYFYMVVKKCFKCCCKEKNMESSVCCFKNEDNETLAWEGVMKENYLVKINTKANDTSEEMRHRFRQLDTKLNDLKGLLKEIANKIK
Excerpt: as §1

LNCaP cells [1] = assay: Fluorescent Ca2+ imaging (Fluo 4-AM) in LNCaP cells; assay type: cell-based, human; conditions: for androgen-induced increase of intracellular Ca2+ levels: 10 nM R1881, 240 s, compound 1 μM
Procedure: LNCaP cells in 6 multi-wells were made quiescent and incubated for 60 min at 37 °C with 1 µM 4-Fluo AM (Abcam, ab241082). Cells were washed twice with Hank’s Balanced salt solution (HBSS) to remove any dye non-specifically associated with the cell surface. They were incubated with medium for 30 min to allow complete de-esterification of intracellular AM esters, and then left untreated or treated for 240 s with 10 nM R1881, in the absence or presence of the indicated compounds. Different fields were analyzed using DMIRB Leica (Leica) microscope equipped with C-Plan × 40 or HCX PL Fluotar × 63 objectives (Leica). IF microscopy images were generated using a DFC 450C camera (Leica).

LNCaP cells [2] = assay: Transmigration assay in Boyden chamber, LNCaP cells; assay type: cell-based, human; conditions: for androgen-induced cell migration: 10 nM R1881, compound 1 μM; for migration when added alone: compound 1 μM, no hormone
Procedure: In wound scratch analysis, 1.8 × 10^5 cells were seeded in a 24-well plate and made quiescent. Cells were then wounded using 10 µl sterile pipette tips and washed with PBS. They were left un-stimulated or stimulated for the indicated times, in the absence or presence of the selected compounds. To avoid cell proliferation, cytosine arabinoside (Sigma-Aldrich) at 50 μM (final concentration) was included in the cell medium. Different fields were analysed by contrast-phase microscopy, as below described in this section. Migration and invasion assays were done as reported. In migration assay, we used 3 × 10^4 cells in collagen pre-coated Boyden’s chambers with 8 μm polycarbonate membrane (Falcon). The indicated stimuli were added to the upper and the lower chambers. Cytosine arabinoside (at 50 μM) was included in the cell medium. After 7 h, non-migrating cells from the membrane upper surface were removed using a sterile cotton swab. In invasion assay, we used 5 × 10^4 cells in Boyden’s chambers with 8 μm polycarbonate membrane (Falcon) pre-coated with growth factor reduced- and phenol red-free Matrigel (Corning). The indicated stimuli were added to the upper and the lower chambers. Cytosine arabinoside (at 50 μM) was included in the cell medium. After 24 h, non-invading cells from the membrane upper surface were removed using a sterile cotton swab. In migration and invasion assays, the membranes were fixed for 20 min in 4% paraformaldehyde, stained with Hoechst (Sigma-Aldrich), removed with forceps from the companion plate and mounted. Migrating and invading cells were scored by fluorescence microscopy, as below described in this section.
In wound scratch assay, different fields were analysed using DMIRB inverted microscope (Leica) equipped with N-Plan 10 × objective (Leica), as reported. LNCaP organoids were analysed using the same microscope equipped with C-Plan 40 × or HCX PL Fluotar 63 × objectives (Leica). Images were captured using a DFC 450C camera (Leica) and acquired using the Application Suite Software (Leica). They are representative of three different experiments. The relative organoid size was calculated using the same software and expressed as a fold increase over the basal organoid size (measured at 3th day). The wound gap was calculated using Image J Software and expressed as % of the decrease in the wound area. Migrating or invading cells from at least 30 fields/each membrane were scored, using a DMLB (Leica) fluorescent microscope, equipped with HCPL Fluotar 20 × objective.

[3] = cycling cells, 18 h, 100 nM and 1 μM
[4] = 1 nM R1881 + compound 1 μM, Fig 2e-f
[5] = fourth group of list (probably IP anti-AR)

With `c1ccc(COc2ccc3[nH]cc(CCNCc4ccc(Oc5ccccc5)cc4)c3c2)cc1` [Compound 4] the BrdU incorporation (C4-2B cells; [3]) was “inhibited”, the “P27, fold increase over the basal level” value (p27; [4]) was 1,1 fold and the “androgen-induced p27 down-regulation” value (p27) was “significantly impair”. For the same compound, the “AR in lysates, Average (n=3)” value (AR; 10 nM R1881 + compound 1 μM) was 0,9, the “AR in lysates, Average (n=3)” value (AR; compound 1 μM alone) was 0,9 and the “TRPM8 in lysates, Average (n=3)” value (TRPM8; 10 nM R1881 + compound 1 μM) was 1. For the same compound, the “TRPM8 in lysates, Average (n=3)” value (TRPM8; compound 1 μM alone) was 1, the “androgen-elicited FAK activation and paxillin phosphorylation” value (FAK, paxillin) was “impaired” and the “FAK or paxillin phosphorylation when used alone” value (FAK, paxillin) was “did not affect”. For the same compound, the “androgen-induced Co-IP of AR with TRPM8” value (AR/TRPM8 complex) was “abolished this association”, the “AR in IP anti-AR, Average (n=3)” value (AR/TRPM8 complex; 10 nM R1881 + compound 1 μM) was 1,1 and the “TRPM8 in IP anti-AR, Average (n=3)” value (AR/TRPM8 complex; 10 nM R1881 + compound 1 μM) was 0,7. For the same compound, the “AR in IP anti-AR, Average (n=3)” value (AR/TRPM8 complex; compound 1 μM alone) was 1,1, the “TRPM8 in IP anti-AR, Average (n=3)” value (AR/TRPM8 complex; compound 1 μM alone) was 0,3 and the “AR/TRPM8 complex assembly in the absence of hormone” value (AR/TRPM8 complex; compound 1 μM alone) was “did not affect”. The “androgen-induced increase of intracellular Ca2+ levels” value (LNCaP cells [1]) was “reduced the androgen effect”, the androgen-induced cell migration (LNCaP cells [2]) was “inhibited” and the “migration when added alone” value (LNCaP cells [2]) was “leaving unaffected”.
With `COC(=O)[C@H](Cc1c[nH]c2ccccc12)N(Cc1ccccc1)Cc1ccccc1` [Compound 6] the BrdU incorporation (C4-2B cells; [3]) was “inhibited”, the “P27, fold increase over the basal level” value (p27; [4]) was 1 fold and the “P27, fold increase over the basal level” value (p27; 10 nM R1881 + compound 1 μM, Fig 2d) was 1,1 fold. For the same compound, the “androgen-induced p27 down-regulation” value (p27) was “significantly impair”, the “AR in lysates, Average (n=3)” value (AR; 10 nM R1881 + compound 1 μM) was 1,1 and the “AR in lysates, Average (n=3)” value (AR; compound 1 μM alone) was 0,9. The “TRPM8 in lysates, Average (n=3)” value (TRPM8; 10 nM R1881 + compound 1 μM) was 1, the “TRPM8 in lysates, Average (n=3)” value (TRPM8; compound 1 μM alone) was 1,1 and the “androgen-elicited FAK activation and paxillin phosphorylation” value (FAK, paxillin) was “impaired”. For the same compound, the “FAK or paxillin phosphorylation when used alone” value (FAK, paxillin) was “did not affect”, the “androgen-induced Co-IP of AR with TRPM8” value (AR/TRPM8 complex) was “abolished this association” and the “AR in IP anti-AR, Average (n=3)” value (AR/TRPM8 complex; 10 nM R1881 + compound 1 μM) was 1. For the same compound, the “TRPM8 in IP anti-AR, Average (n=3)” value (AR/TRPM8 complex; 10 nM R1881 + compound 1 μM) was 0,6, the “AR in IP anti-AR, Average (n=3)” value (AR/TRPM8 complex; compound 1 μM alone) was 1,1 and the “TRPM8 in IP anti-AR, Average (n=3)” value (AR/TRPM8 complex; compound 1 μM alone) was 0,3. For the same compound, the “AR/TRPM8 complex assembly in the absence of hormone” value (AR/TRPM8 complex; compound 1 μM alone) was “did not affect”, the “androgen-induced increase of intracellular Ca2+ levels” value (LNCaP cells [1]) was “reduced the androgen effect” and the androgen-induced cell migration (LNCaP cells [2]) was “inhibited”. The “migration when added alone” value (LNCaP cells [2]) was “leaving unaffected”.
In the case of `C[C@]1(O)CC[C@H]2[C@@H]3CCC4=CC(=O)CCC4=C3C=C[C@@]21C` [Compound R1881, reference compound], the BrdU incorporation (C4-2B cells; 10 nM R1881 (not shown)) is reported as “did not observe any effect”, the “P27, fold increase over the basal level” value (p27; 1 nM R1881 alone, Fig 2e) is reported as 0,6 fold and the “P27, fold increase over the basal level” value (p27; 1 nM R1881 alone, Fig 2f) is reported as 0,6 fold. The “P27, fold increase over the basal level” value (p27; 10 nM R1881 alone, Fig 2d) was 0,4 fold, the “AR, Average (n=3)” value (AR; Fig 6e, first group of list (section not labelled, probably lysates), R1881 alone) was 1 and the “AR in lysates, Average (n=3)” value (AR; 10 nM R1881 alone, 10 min) was 1. For the same compound, the “amount of TRPM8 (Western blot)” value (TRPM8; 10 nM R1881, 24 h, quiescent LNCaP cells) was “very weakly increased”, the “TRPM8, Average (n=3)” value (TRPM8; Fig 6e, R1881 alone) was 1 and the “TRPM8 in lysates, Average (n=3)” value (TRPM8; 10 nM R1881 alone, 10 min) was 0,9. The “FAK activation and paxillin phosphorylation” value (FAK, paxillin; 10 nM R1881 alone, within 10 min) was “triggered”, the “AR, Average (n=3)” value (AR/TRPM8 complex; [5]) was 1 and the “TRPM8, Average (n=3)” value (AR/TRPM8 complex; [5]) was 3,1. For the same compound, the “AR, Average (n=3)” value (AR/TRPM8 complex; second group of list) was 0,1, the “TRPM8, Average (n=3)” value (AR/TRPM8 complex; second group of list) was 0,1 and the “AR, Average (n=3)” value (AR/TRPM8 complex; third group of list) was 1. The “TRPM8, Average (n=3)” value (AR/TRPM8 complex; third group of list) was 0, the “AR in IP anti-AR, Average (n=3)” value (AR/TRPM8 complex; 10 nM R1881 alone, 10 min) was 1 and the “TRPM8 in IP anti-AR, Average (n=3)” value (AR/TRPM8 complex; 10 nM R1881 alone, 10 min) was 2,9. For the same compound, the “intracellular Ca2+ levels” value (LNCaP cells [1]; 10 nM R1881 alone, within 240 s) was “increased” and the “increase in number of migrating cells” value (LNCaP cells [2]; 10 nM R1881 alone) was ~3 folds.

— publication PMC8636514, “Therapeutic potential of TRPM8 antagonists in prostate cancer” (Scientific Reports, 2021)
